In patent US6310176A, “Antimicrobially active polypeptides” (SBL Vaccin AB, priority 1996, dated 2001):
Where two headings read alike, the source gives them in different places. Where no end group is shown, it is not given here.

Tests used:
Bacillus megaterium BM11 [1] = experiment: Antimicrobial inhibition zone assay, B. megaterium; type: cell-based; conditions: B. megaterium BmII; inhibition zones on agarose plates
Procedure: (§1) Antimicrobial assay. The antibacterial activity was tested against Bacillus megaterium BM11, Staphylococcus aureus Cowahl, Streptococcus pyogenes b hemolytic group A, Pseudomonas aeruginosa ATCC 15692, Escherichia coli D21, E. coli D21e7, E. coli D21f1, E. coli D21f2 and E. coli D22, using an inhibition zone assay on LB broth/1% agarose plates seeded with 2×10^5 viable bacteria (Hultmark, D., Engstrom, A., Andersson, K., Steiner, H., Bennich, H. & Boman, H. G. (1983) Insect immunity. Attacin, a family of antibacterial proteins from Hyulophora cecropin, EMBO J. 2, 571-576). Fresh cultures of Candida albicans ATCC 10261 were inoculated in WB broth, pH 6.5, and grown at 37° C. to approximately 0.6 OD600. Before plating, cultures were diluted 300 fold and then incubated overnight at 37° C. in the presence of the test peptide, the concentration of which was established by amino acid analysis. Inhibition zones were measured and the lethal concentration (LC, the lowest concentration that inhibits the growth) was calculated from the diameter of the zones obtained in serial dilutions of the test substance by using the formula given in Hultmark, D., Engstrom, A., Andersson, K., Steiner, H., Bennich, H. & Boman, H. G. (1983) Insect immunity. […] Values are expressed as the mean of at least 5 experiments with a divergence of not more than one dilution step.

Human red cells [2] = experiment: Red blood cell lysis; type: cell-based
[3] = system: Staphylococcus aureus Cowan1; experiment: Antimicrobial inhibition zone assay, S. aureus; type: cell-based; conditions: inhibition zones on agarose plates
Procedure: as §1

Escherichia coli D21 [4] = experiment: Antimicrobial inhibition zone assay, E. coli D21; type: cell-based; conditions: Table 2
Procedure: as §1, with “step. […]” for “step.”

Human red cells [5] = conditions: cecropin data from Hultmark et al. (1983); cited from earlier work
Y. pseudotubercolosis = conditions: cecropin data from Hultmark et al. (1983); cited from earlier work
Escherichia coli D21 [6] = conditions: E. coli D21; cecropin data from Hultmark et al. (1983); cited from earlier work
[7] = system: Staphylococcus aureus Cowan1; conditions: S. aureus Cowan1; cecropin data from Hultmark et al. (1983); cited from earlier work
Bacillus megaterium BM11 [8] = conditions: B. megaterium BmII; cecropin data from Hultmark et al. (1983); cited from earlier work

CC[C@H](C)[C@H](NC(=O)CN)C(=O)NCC(=O)N[C@@H](C)C(=O)N[C@H](C(=O)N[C@@H](CC(C)C)C(=O)N[C@@H](CCCCN)C(=O)N[C@H](C(=O)N[C@@H](CC(C)C)C(=O)N[C@H](C(=O)N[C@H](C(=O)NCC(=O)N[C@@H](CC(C)C)C(=O)N1CCC[C@H]1C(=O)N[C@@H](C)C(=O)N[C@@H](CC(C)C)C(=O)N[C@H](C(=O)N[C@@H](CO)C(=O)N[C@@H](Cc1c[nH]c2ccccc12)C(=O)N[C@H](C(=O)N[C@@H](CCCCN)C(=O)N[C@@H](CCCNC(=N)N)C(=O)N[C@@H](CCCCN)C(=O)N[C@@H](CCCNC(=N)N)C(=O)N[C@@H](CCC(N)=O)C(=O)N[C@@H](CCC(N)=O)C(N)=O)[C@@H](C)CC)[C@@H](C)CC)[C@@H](C)O)[C@@H](C)O)C(C)C)C(C)C [Melittin]
Lethal concentration (Bacillus megaterium BM11 [1]): 0.6 µM
Lethal concentration (lytic activity) (Human red cells [2]): 0.9 µM
Lethal concentration [3]: 0.2 µM
Lethal concentration (Escherichia coli D21 [4]): 0.8 µM

Cecropin A: cecropin from insect hemolymph (KWKLFKKIEKVGQNIRDGIIKAGPAVAVVGQATQIAK; ends and bridges not checked; UniProt P01507 27-63, looked up)
Lethal concentration (lytic activity) (Human red cells [5]): > 400 µM
Lethal concentration (Y. pseudotubercolosis): 0.5 µM
Lethal concentration (Escherichia coli D21 [6]): 0.3 µM
Lethal concentration [7]: > 200 µM
Lethal concentration (Bacillus megaterium BM11 [8]): 0.5 µM

FIGSALKVLAGVLPSVISWVKQ-NH2 [MLP]
Lethal concentration (lytic activity) (Human red cells [2]): 0.5 µM

FLPLIGRVLSGIL-NH2 [Temporin A]
Lethal concentration (lytic activity) (Human red cells [2]): > 120 µM

LLPIVGNLLKSLL-NH2 [Temporin B]
Lethal concentration (lytic activity) (Human red cells [2]): > 120 µM
